In PubChem BioAssay (NCI):
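Cells were grown in 96-well plates and exposed to each compound for 48 hours at five concentrations; endpoints were interpolated linearly between bracketing concentrations, or set to the highest concentration if not reached. TGI marks complete inhibition of growth.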

How the values were obtained:
Assay in all cases: NCI-60 cell line screen, 48 h
K-562 leukemia = system: K-562 leukemia
SR leukemia = system: SR leukemia
HCT-15 colon = system: HCT-15 colon
HL-60(TB) leukemia = system: HL-60(TB) leukemia
U251 CNS = system: U251 CNS
COLO 205 colon = system: COLO 205 colon
SNB-75 CNS = system: SNB-75 CNS
ACHN renal = system: ACHN renal
OVCAR-5 ovarian = system: OVCAR-5 ovarian
HT29 colon = system: HT29 colon
UACC-257 melanoma = system: UACC-257 melanoma
MCF7 breast = system: MCF7 breast
UACC-62 melanoma = system: UACC-62 melanoma
MALME-3M melanoma = system: MALME-3M melanoma
EKVX NSCLC = system: EKVX NSCLC
SF-268 CNS = system: SF-268 CNS
NCI-H460 lung = system: NCI-H460 lung
HS 578T breast = system: HS 578T breast
OVCAR-4 ovarian = system: OVCAR-4 ovarian
SK-MEL-5 melanoma = system: SK-MEL-5 melanoma
OVCAR-3 ovarian = system: OVCAR-3 ovarian
NCI-H226 lung = system: NCI-H226 lung
A498 renal = system: A498 renal
PC-3 prostate = system: PC-3 prostate
SK-MEL-28 melanoma = system: SK-MEL-28 melanoma
MDA-MB-435 = system: MDA-MB-435
A549 NSCLC = system: A549 NSCLC
DU-145 prostate = system: DU-145 prostate
T-47D breast = system: T-47D breast
NCI/ADR-RES ovarian = system: NCI/ADR-RES ovarian
NCI-H522 lung = system: NCI-H522 lung
IGROV1 ovarian = system: IGROV1 ovarian
HOP-92 NSCLC = system: HOP-92 NSCLC
UO-31 renal = system: UO-31 renal
HCT-116 colon = system: HCT-116 colon
NCI-H23 lung = system: NCI-H23 lung
HCC-2998 colon = system: HCC-2998 colon
KM12 colon = system: KM12 colon
SW-620 colon = system: SW-620 colon
SK-OV-3 ovarian = system: SK-OV-3 ovarian
SN12C renal = system: SN12C renal
TK-10 renal = system: TK-10 renal
RXF 393 renal = system: RXF 393 renal
SF-295 CNS = system: SF-295 CNS
MDA-MB-231 breast = system: MDA-MB-231 breast
SNB-19 CNS = system: SNB-19 CNS
MDA-N = system: MDA-N
OVCAR-8 ovarian = system: OVCAR-8 ovarian
CCRF-CEM leukemia = system: CCRF-CEM leukemia
786-0 renal = system: 786-0 renal
MOLT-4 leukemia = system: MOLT-4 leukemia
BT-549 breast = system: BT-549 breast
M14 melanoma = system: M14 melanoma
LOX IMVI melanoma = system: LOX IMVI melanoma
CAKI-1 renal = system: CAKI-1 renal
HOP-62 NSCLC = system: HOP-62 NSCLC
SF-539 CNS = system: SF-539 CNS
RPMI-8226 leukemia = system: RPMI-8226 leukemia
SK-MEL-2 melanoma = system: SK-MEL-2 melanoma

## CC(=O)O[C@H]1CC[C@@]2(C)C(=CC[C@@H]3[C@@H]2CC[C@]2(C)c4c(cc(C#N)c(=N)n4C(C)=O)C[C@@H]32)C1
K-562 leukemia
  TGI: > 100 µM
SR leukemia
  TGI: 61.2 µM
HCT-15 colon
  TGI: 29.4 µM
HL-60(TB) leukemia
  TGI: 36 µM
U251 CNS
  TGI: > 100 µM
COLO 205 colon
  TGI: 35.7 µM
SNB-75 CNS
  TGI: 44.9 µM
ACHN renal
  TGI: 47.8 µM
OVCAR-5 ovarian
  TGI: 74.7 µM
HT29 colon
  TGI: 43.5 µM
UACC-257 melanoma
  TGI: 33.9 µM
MCF7 breast
  TGI: 47.2 µM
UACC-62 melanoma
  TGI: 29.7 µM
MALME-3M melanoma
  TGI: 31.8 µM
EKVX NSCLC
  TGI: 43.2 µM
SF-268 CNS
  TGI: 62.7 µM
NCI-H460 lung
  TGI: 30.3 µM
HS 578T breast
  TGI: 59.6 µM
OVCAR-4 ovarian
  TGI: 39.4 µM
SK-MEL-5 melanoma
  TGI: 29.7 µM
OVCAR-3 ovarian
  TGI: 34.4 µM
NCI-H226 lung
  TGI: 72.8 µM
A498 renal
  TGI: 88.7 µM
PC-3 prostate
  TGI: 54.6 µM
SK-MEL-28 melanoma
  TGI: 37.3 µM
MDA-MB-435
  TGI: 38.5 µM
A549 NSCLC
  TGI: 64.8 µM
DU-145 prostate
  TGI: 79.3 µM
T-47D breast
  TGI: 46.9 µM
NCI/ADR-RES ovarian
  TGI: 39.6 µM
NCI-H522 lung
  TGI: 35.9 µM
IGROV1 ovarian
  TGI: 53.3 µM
HOP-92 NSCLC
  TGI: 59.8 µM
UO-31 renal
  TGI: 52.8 µM
HCT-116 colon
  TGI: 28.5 µM
NCI-H23 lung
  TGI: 32.1 µM
HCC-2998 colon
  TGI: 41.9 µM
KM12 colon
  TGI: 32.8 µM
SW-620 colon
  TGI: 47.5 µM
SK-OV-3 ovarian
  TGI: 34.5 µM
SN12C renal
  TGI: 44.8 µM
TK-10 renal
  TGI: 66.8 µM
RXF 393 renal
  TGI: 66.5 µM
SF-295 CNS
  TGI: 29.6 µM
MDA-MB-231 breast
  TGI: 77.9 µM
SNB-19 CNS
  TGI: 89 µM
MDA-N
  TGI: 52.9 µM
OVCAR-8 ovarian
  TGI: 37.6 µM
CCRF-CEM leukemia
  TGI: 23.2 µM
786-0 renal
  TGI: 58.3 µM
MOLT-4 leukemia
  TGI: 35.8 µM
BT-549 breast
  TGI: 34.8 µM
M14 melanoma
  TGI: 32.5 µM
LOX IMVI melanoma
  TGI: 30.8 µM
CAKI-1 renal
  TGI: 95.8 µM
HOP-62 NSCLC
  TGI: 49.4 µM

## Nn1c(SCC(=O)NCc2ccccc2)nc2ccccc2c1=O
K-562 leukemia
  TGI: > 100 µM
SR leukemia
  TGI: 69 µM
HCT-15 colon
  TGI: > 100 µM
U251 CNS
  TGI: > 100 µM
COLO 205 colon
  TGI: > 100 µM
SNB-75 CNS
  TGI: > 100 µM
ACHN renal
  TGI: > 100 µM
OVCAR-5 ovarian
  TGI: > 100 µM
HT29 colon
  TGI: > 100 µM
UACC-257 melanoma
  TGI: > 100 µM
MCF7 breast
  TGI: > 100 µM
SF-539 CNS
  TGI: > 100 µM
UACC-62 melanoma
  TGI: > 100 µM
MALME-3M melanoma
  TGI: > 100 µM
EKVX NSCLC
  TGI: > 100 µM
SF-268 CNS
  TGI: > 100 µM
NCI-H460 lung
  TGI: > 100 µM
RPMI-8226 leukemia
  TGI: > 100 µM
HS 578T breast
  TGI: > 100 µM
OVCAR-4 ovarian
  TGI: > 100 µM
SK-MEL-5 melanoma
  TGI: > 100 µM
OVCAR-3 ovarian
  TGI: > 100 µM
NCI-H226 lung
  TGI: > 100 µM
A498 renal
  TGI: > 100 µM
PC-3 prostate
  TGI: > 100 µM
SK-MEL-28 melanoma
  TGI: > 100 µM
MDA-MB-435
  TGI: > 100 µM
A549 NSCLC
  TGI: > 100 µM
DU-145 prostate
  TGI: > 100 µM
T-47D breast
  TGI: > 100 µM
NCI/ADR-RES ovarian
  TGI: > 100 µM
NCI-H522 lung
  TGI: > 100 µM
IGROV1 ovarian
  TGI: > 100 µM
SK-MEL-2 melanoma
  TGI: > 100 µM
HOP-92 NSCLC
  TGI: > 100 µM
UO-31 renal
  TGI: > 100 µM
HCT-116 colon
  TGI: 93.1 µM
NCI-H23 lung
  TGI: > 100 µM
HCC-2998 colon
  TGI: > 100 µM
KM12 colon
  TGI: > 100 µM
SW-620 colon
  TGI: > 100 µM
SN12C renal
  TGI: > 100 µM
TK-10 renal
  TGI: > 100 µM
RXF 393 renal
  TGI: > 100 µM
SF-295 CNS
  TGI: > 100 µM
MDA-MB-231 breast
  TGI: > 100 µM
SNB-19 CNS
  TGI: > 100 µM
MDA-N
  TGI: > 100 µM
OVCAR-8 ovarian
  TGI: > 100 µM
CCRF-CEM leukemia
  TGI: > 100 µM
786-0 renal
  TGI: > 100 µM
MOLT-4 leukemia
  TGI: 49.5 µM
BT-549 breast
  TGI: > 100 µM
M14 melanoma
  TGI: > 100 µM
LOX IMVI melanoma
  TGI: > 100 µM
CAKI-1 renal
  TGI: > 100 µM
